These compounds were tested on Avena fatua (AVEFA) (assay: Post-emergence herbicidal activity, glasshouse pot test). Conditions: Avena fatua, rate 500 g/ha, evaluated after 14 or 15 days, read-out: Post-emergence activity, AVEFA (100=total damage to plant; 0=no damage to plant).
Assay type: in vivo
How it was run: (§1)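 Plants sown in sterilised standard soil, grown 10 days in glasshouse, then sprayed with aqueous dilution of active ingredient formulated in acetone plus Emulsogen EL/N-methylpyrrolidone/dipropylene glycol monomethyl ether/X-77 solution. Damage scored visually 14 or 15 days after spraying, 0 (none) to 100 (total).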

SMILES	pest or weed control at 500 g/ha [%]
Cc1ccc(-c2ccc(Cl)cc2)cc1C1=C(O)CC2(CCOCC2)CC1=O [Compound T3]	80
COC1CCC2(CC1)CC(=O)C(c1cc(C)ccc1C)=C(OC(=O)CC(C)(C)C)C2 (stereo not drawn) [Compound P56]	10
CCc1cc(C)cc(CC)c1C1=C(OC(=O)C(C)(C)C)CC2(CCOCC2)CC1=O [Compound P4]	90
CCC[S+]([O-])C(C)CC1CC(=O)C(c2c(CC)cc(C)cc2CC)=C(O)C1 (stereo not drawn) [Compound T37]	90

These compounds were tested on Setaria faberi (SETFA) in the same assay as above. Conditions: Setaria faberi, rate 500 g/ha, evaluated after 14 or 15 days, read-out: Post-emergence activity, SETFA (100=total damage to plant; 0=no damage to plant).
Assay type: in vivo
How it was run: as §1

SMILES	pest or weed control at 500 g/ha [%]
Cc1ccc(-c2ccc(Cl)cc2)cc1C1=C(O)CC2(CCOCC2)CC1=O [Compound T3]	100
COC1CCC2(CC1)CC(=O)C(c1cc(C)ccc1C)=C(OC(=O)CC(C)(C)C)C2 (stereo not drawn) [Compound P56]	70
CCc1cc(C)cc(CC)c1C1=C(OC(=O)C(C)(C)C)CC2(CCOCC2)CC1=O [Compound P4]	80
CCC[S+]([O-])C(C)CC1CC(=O)C(c2c(CC)cc(C)cc2CC)=C(O)C1 (stereo not drawn) [Compound T37]	50

Each compound was assayed on Alopecurus myosuroides (ALOMY) in the same assay as above. Conditions: Alopecurus myosuroides, rate 500 g/ha, evaluated after 14 or 15 days, read-out: Post-emergence activity, ALOMY (100=total damage to plant; 0=no damage to plant).
Assay type: in vivo
How it was run: as §1

SMILES	pest or weed control at 500 g/ha [%]
Cc1ccc(-c2ccc(Cl)cc2)cc1C1=C(O)CC2(CCOCC2)CC1=O [Compound T3]	80
COC1CCC2(CC1)CC(=O)C(c1cc(C)ccc1C)=C(OC(=O)CC(C)(C)C)C2 (stereo not drawn) [Compound P56]	70
CCc1cc(C)cc(CC)c1C1=C(OC(=O)C(C)(C)C)CC2(CCOCC2)CC1=O [Compound P4]	100
CCC[S+]([O-])C(C)CC1CC(=O)C(c2c(CC)cc(C)cc2CC)=C(O)C1 (stereo not drawn) [Compound T37]	90

These compounds were tested on Lolium perenne (LOLPE) in the same assay as above. Conditions: Lolium perenne, rate 500 g/ha, evaluated after 14 or 15 days, read-out: Post-emergence activity, LOLPE (100=total damage to plant; 0=no damage to plant).
Assay type: in vivo
How it was run: as §1

SMILES	pest or weed control at 500 g/ha [%]
Cc1ccc(-c2ccc(Cl)cc2)cc1C1=C(O)CC2(CCOCC2)CC1=O [Compound T3]	80
COC1CCC2(CC1)CC(=O)C(c1cc(C)ccc1C)=C(OC(=O)CC(C)(C)C)C2 (stereo not drawn) [Compound P56]	70
CCc1cc(C)cc(CC)c1C1=C(OC(=O)C(C)(C)C)CC2(CCOCC2)CC1=O [Compound P4]	100
CCC[S+]([O-])C(C)CC1CC(=O)C(c2c(CC)cc(C)cc2CC)=C(O)C1 (stereo not drawn) [Compound T37]	90

The compounds below were run on Echinochloa crus-galli (ECHCG) in the same assay as above. Conditions: Echinochloa crus-galli, rate 500 g/ha, evaluated after 14 or 15 days, read-out: Post-emergence activity, ECHCG (100=total damage to plant; 0=no damage to plant).
Assay type: in vivo
How it was run: as §1

SMILES	pest or weed control at 500 g/ha [%]
Cc1ccc(-c2ccc(Cl)cc2)cc1C1=C(O)CC2(CCOCC2)CC1=O [Compound T3]	100
COC1CCC2(CC1)CC(=O)C(c1cc(C)ccc1C)=C(OC(=O)CC(C)(C)C)C2 (stereo not drawn) [Compound P56]	80
CCc1cc(C)cc(CC)c1C1=C(OC(=O)C(C)(C)C)CC2(CCOCC2)CC1=O [Compound P4]	100
CCC[S+]([O-])C(C)CC1CC(=O)C(c2c(CC)cc(C)cc2CC)=C(O)C1 (stereo not drawn) [Compound T37]	100

The compounds below were run on Digitaria sanguinalis (DIGSA) in the same assay as above. Conditions: Digitaria sanguinalis, rate 500 g/ha, evaluated after 14 or 15 days, read-out: Post-emergence activity, DIGSA (100=total damage to plant; 0=no damage to plant).
Assay type: in vivo
How it was run: as §1

SMILES	pest or weed control at 500 g/ha [%]
Cc1ccc(-c2ccc(Cl)cc2)cc1C1=C(O)CC2(CCOCC2)CC1=O [Compound T3]	100
COC1CCC2(CC1)CC(=O)C(c1cc(C)ccc1C)=C(OC(=O)CC(C)(C)C)C2 (stereo not drawn) [Compound P56]	80
CCc1cc(C)cc(CC)c1C1=C(OC(=O)C(C)(C)C)CC2(CCOCC2)CC1=O [Compound P4]	80
CCC[S+]([O-])C(C)CC1CC(=O)C(c2c(CC)cc(C)cc2CC)=C(O)C1 (stereo not drawn) [Compound T37]	80

Each compound was assayed on Avena fatua (AVEFA) (assay: Pre-emergence herbicidal activity, glasshouse pot test). Conditions: Avena fatua, 480 h, rate 500 g/ha, evaluated after 20 days, read-out: Pre-emergence activity, AVEFA (100=total damage to plant; 0=no damage to plant).
Assay type: in vivo
How it was run: (§2)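 Visual damage score 0–100 (100 = plant totally killed), taken 20 days after treatment. Spray was applied to pots of sterilised standard soil one day post-sowing, using an aqueous solution of compound in acetone and a surfactant/solvent blend (Emulsogen EL, NMP, DPGME, X-77).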

SMILES	pest or weed control at 500 g/ha [%]
Cc1ccc(-c2ccc(Cl)cc2)cc1C1=C(O)CC2(CCOCC2)CC1=O [Compound T3]	50
COC1CCC2(CC1)CC(=O)C(c1cc(C)ccc1C)=C(OC(=O)CC(C)(C)C)C2 (stereo not drawn) [Compound P56]	60
CCc1cc(C)cc(CC)c1C1=C(OC(=O)C(C)(C)C)CC2(CCOCC2)CC1=O [Compound P4]	100
CCC[S+]([O-])C(C)CC1CC(=O)C(c2c(CC)cc(C)cc2CC)=C(O)C1 (stereo not drawn) [Compound T37]	90

The compounds below were run on Setaria faberi (SETFA) in the same assay as above. Conditions: Setaria faberi, 480 h, rate 500 g/ha, evaluated after 20 days, read-out: Pre-emergence activity, SETFA (100=total damage to plant; 0=no damage to plant).
Assay type: in vivo
How it was run: as §2

SMILES	pest or weed control at 500 g/ha [%]
Cc1ccc(-c2ccc(Cl)cc2)cc1C1=C(O)CC2(CCOCC2)CC1=O [Compound T3]	100
COC1CCC2(CC1)CC(=O)C(c1cc(C)ccc1C)=C(OC(=O)CC(C)(C)C)C2 (stereo not drawn) [Compound P56]	100
CCc1cc(C)cc(CC)c1C1=C(OC(=O)C(C)(C)C)CC2(CCOCC2)CC1=O [Compound P4]	100
CCC[S+]([O-])C(C)CC1CC(=O)C(c2c(CC)cc(C)cc2CC)=C(O)C1 (stereo not drawn) [Compound T37]	100

These compounds were tested on Alopecurus myosuroides (ALOMY) in the same assay as above. Conditions: Alopecurus myosuroides, 480 h, rate 500 g/ha, evaluated after 20 days, read-out: Pre-emergence activity, ALOMY (100=total damage to plant; 0=no damage to plant).
Assay type: in vivo
How it was run: as §2

SMILES	pest or weed control at 500 g/ha [%]
Cc1ccc(-c2ccc(Cl)cc2)cc1C1=C(O)CC2(CCOCC2)CC1=O [Compound T3]	40
COC1CCC2(CC1)CC(=O)C(c1cc(C)ccc1C)=C(OC(=O)CC(C)(C)C)C2 (stereo not drawn) [Compound P56]	100
CCc1cc(C)cc(CC)c1C1=C(OC(=O)C(C)(C)C)CC2(CCOCC2)CC1=O [Compound P4]	100
CCC[S+]([O-])C(C)CC1CC(=O)C(c2c(CC)cc(C)cc2CC)=C(O)C1 (stereo not drawn) [Compound T37]	100

Each compound was assayed on Lolium perenne (LOLPE) in the same assay as above. Conditions: Lolium perenne, 480 h, rate 500 g/ha, evaluated after 20 days, read-out: Pre-emergence activity, LOLPE (100=total damage to plant; 0=no damage to plant).
Assay type: in vivo
How it was run: as §2

SMILES	pest or weed control at 500 g/ha [%]
Cc1ccc(-c2ccc(Cl)cc2)cc1C1=C(O)CC2(CCOCC2)CC1=O [Compound T3]	60
COC1CCC2(CC1)CC(=O)C(c1cc(C)ccc1C)=C(OC(=O)CC(C)(C)C)C2 (stereo not drawn) [Compound P56]	60
CCc1cc(C)cc(CC)c1C1=C(OC(=O)C(C)(C)C)CC2(CCOCC2)CC1=O [Compound P4]	100
CCC[S+]([O-])C(C)CC1CC(=O)C(c2c(CC)cc(C)cc2CC)=C(O)C1 (stereo not drawn) [Compound T37]	100

These compounds were tested on Echinochloa crus-galli (ECHCG) in the same assay as above. Conditions: Echinochloa crus-galli, 480 h, rate 500 g/ha, evaluated after 20 days, read-out: Pre-emergence activity, ECHCG (100=total damage to plant; 0=no damage to plant).
Assay type: in vivo
How it was run: as §2

SMILES	pest or weed control at 500 g/ha [%]
Cc1ccc(-c2ccc(Cl)cc2)cc1C1=C(O)CC2(CCOCC2)CC1=O [Compound T3]	100
COC1CCC2(CC1)CC(=O)C(c1cc(C)ccc1C)=C(OC(=O)CC(C)(C)C)C2 (stereo not drawn) [Compound P56]	80
CCc1cc(C)cc(CC)c1C1=C(OC(=O)C(C)(C)C)CC2(CCOCC2)CC1=O [Compound P4]	90
CCC[S+]([O-])C(C)CC1CC(=O)C(c2c(CC)cc(C)cc2CC)=C(O)C1 (stereo not drawn) [Compound T37]	100

Each compound was assayed on Digitaria sanguinalis (DIGSA) in the same assay as above. Conditions: Digitaria sanguinalis, 480 h, rate 500 g/ha, evaluated after 20 days, read-out: Pre-emergence activity, DIGSA (100=total damage to plant; 0=no damage to plant).
Assay type: in vivo
How it was run: as §2

SMILES	pest or weed control at 500 g/ha [%]
Cc1ccc(-c2ccc(Cl)cc2)cc1C1=C(O)CC2(CCOCC2)CC1=O [Compound T3]	100
COC1CCC2(CC1)CC(=O)C(c1cc(C)ccc1C)=C(OC(=O)CC(C)(C)C)C2 (stereo not drawn) [Compound P56]	100
CCc1cc(C)cc(CC)c1C1=C(OC(=O)C(C)(C)C)CC2(CCOCC2)CC1=O [Compound P4]	100
CCC[S+]([O-])C(C)CC1CC(=O)C(c2c(CC)cc(C)cc2CC)=C(O)C1 (stereo not drawn) [Compound T37]	100

From patent US8084649B2, “Herbicides” (Syngenta Crop Protection, inc., priority 2007, dated 2011)
